Test results published in publication PMC4678293, “Identification of a lead like inhibitor of the hepatitis C virus non-structural NS2 autoprotease” (Antiviral Research, 2015).
Values joined by “and” are separate entries in the source; they are usually repeats but may differ in a detail not shown here. Identical values can stand only once. “Also recorded” adds a separate entry of the source. Like-named read-outs stand apart in the source and are kept apart here.

How the values were obtained:
[1] = target: T1, NS2 autoprotease (NS2-NS3-FLAG, JFH-1 isolate, genotype 2a) (Hepatitis C virus genotype 2a, UniProt Q99IB8); test: in vitro NS2 autoprotease assay: recombinant NS2-NS3-FLAG proteolysis, NS3-FLAG product quantified by western blot; type: biochemical; conditions: 16 h
T1 construct: made in house
Experimental: NS2-NS3-FLAG (JFH-1 isolate, genotype 2a) was purified, and proteolysis reactions were performed as previously described ([Shaw et al., 2015]). Compounds were added to reactions prior to addition of NS2-NS3-FLAG by dilution from DMSO stocks (final DMSO 0.75%). Reactions were incubated at room temperature for 16 h, terminated by addition of Laemmli buffer and the NS3-FLAG proteolysis product quantified by western blot using M2 anti-FLAG monoclonal antibody (Sigma Aldrich) and IRDye 680RD Donkey anti-Mouse (LI-COR Biosciences) on an Odyssey imager (LI-COR). NS3-FLAG was normalised to DMSO control and a non-linear regression fitted with Prism 6 (GraphPad) to determine 50% effective concentration (EC50).
Firstly, compounds were tested for the ability to block production of a substrate product of the NS2 autoprotease in an in vitro assay. This assay, using a recombinant NS2-NS3-FLAG precursor purified under denaturing conditions, measured NS2 autoprotease activity using quantitative western blot to monitor a proteolysis product (NS3-FLAG) ([Foster et al., 2010], [Shaw et al., 2015], [Tedbury and Harris, 2007]).

[2] = tested on: SGR-luc-NS2-5B(JFH-1) sub-genomic replicon; test: transient replication assay: SGR-luc-NS2-5B(JFH-1) RNA electroporated into Huh7.5 cells, luciferase; type: cell-based, Hepatitis C virus
Experimental: For transient SGR experiments, in vitro transcripts (2 μg) of firefly luciferase-containing SGR were electroporated into 4 × 10^6 Huh7.5 cells ([Blight et al., 2002]) or Huh7 cells at 950 μF and 270 V. 2 × 10^4 cells/well were seeded in a 96 well plate. At 4 h post electroporation (h.p.e.) media was replaced with media containing compounds.
(§1) Firefly luciferase was measured as in Section 2.4. Data was normalised to DMSO controls and EC50/CC50 determined using Prism 6 (GraphPad).

[3] = tested on: SGR-feo-NS2-5B(JFH-1) sub-genomic replicon; test: luciferase assay in Huh7.5 cells stably harbouring SGR-feo-NS2-5B(JFH-1); type: cell-based, Hepatitis C virus; conditions: Huh7.5, 48 h
Experimental: (§2) Selection and maintenance of Huh7.5 cells stably harbouring SGR-feo-NS3-5B ([Wyles et al., 2009], [Wyles et al., 2007]) or SGR-feo-NS2-5B derived from JFH-1 (genotype 2a) and Con1 (genotype 1b) has previously been reported ([Shaw et al., 2015]). Cells were maintained in Dulbecco's modified Eagle's medium (DMEM) supplemented with 10% FBS, 100 IU penicillin ml^−1, 100 μg streptomycin ml^−1, 1% non-essential amino acids and 300 μg/ml G418 in a humidified incubator at 37 °C in 5% CO2. For screening, 2 × 10^4 cells/well were seeded in a 96-well plate in the absence of G418 and compounds were added to 10 μM final concentration by dilution from DMSO stocks. At 72 h, cells were washed in PBS and lysed in 30 μl/well Passive Lysis Buffer (PLB: Promega). Luciferase activity was quantified by automated addition of 40 μl LarI reagent (Promega) and light emission recorded over 6 s using a BMG Labtech Fluostar plate reader. Statistical significance was determined using the Student's t test.
as §1
Additionally, compounds were tested for the ability to specifically perturb NS2-dependent HCV genome replication in a cell-based assay. […]

[4] = tested on: SGR-feo-NS3-5B(Con1) sub-genomic replicon; test: luciferase assay in Huh7.5 cells stably harbouring SGR-feo-NS3-5B(Con1), independent of NS2; type: cell-based, Hepatitis C virus; conditions: 10 μM, Huh7.5 stable cells
Experimental: as §2
(§3) Additionally, compounds were tested for the ability to specifically perturb NS2-dependent HCV genome replication in a cell-based assay. Compounds were tested against cells stably harbouring a HCV sub-genomic replicon (SGR) comprising either NS2-5B or NS3-5B with a firefly luciferase-neomycin phosphotransferase reporter ([Shaw et al., 2015], [Wyles et al., 2009], [Wyles et al., 2007]). […]

[5] = tested on: Jc1-NLuc (genotype 2a chimeric Jc1, infectious HCV); test: HCVcc assay: Jc1-NLuc RNA electroporated into Huh7.5 cells, NanoLuc activity; type: cell-based, Hepatitis C virus
Experimental: (§4) For HCVcc experiments, 5 μg of Jc1-NLuc ([Amako et al., 2015]) transcript was electroporated into Huh7.5 cells and treated with compound as described in Section 2.5. Cytotoxicity or NanoLuc (NLuc) activity was measured at 48 h incubation with compound. Cells were lysed as in Section 2.4. Following the addition of 50 μl/well Nano-Glo Luciferase Assay Substrate (Promega) light emission was recorded using a BMG Labtech Fluostar plate reader and data analysed as in Section 2.5.

Huh7.5 cells [6] = test: cytotoxicity at 25 μM in Huh7.5 cells, MTT or ATPlite assay; type: cell-based; conditions: 48 h
Experimental: (§5) For cytotoxicity assay, media was removed and cells were incubated in 1 mM thiazolyl blue tetrazolium bromide (MTT) for >2 h. MTT crystals were resuspended in 100 μl DMSO and absorbance at 570 nm quantified using an infinite F50 plate reader (Tecan). Alternatively, cytotoxicity was analysed using the ATPLite kit following the manufacturer's instructions, with light emission quantified using a BMG Labtech Fluostar plate reader.

[7] = tested on: SGR-feo-NS2-5B(Con1) sub-genomic replicon, genotype 1b; test: luciferase assay in Huh7.5 cells stably harbouring SGR-feo-NS2-5B(Con1); type: cell-based, Hepatitis C virus; conditions: 10 μM, Huh7.5 stable cells, p = 0.0006
Experimental: as §2, §3

[8] = cell viability by ATPLite in SGR-feo-NS2-5B(JFH-1) harbouring Huh7.5 cells; type: cell-based; conditions: human, Huh7.5 cells harbouring SGR-feo-NS2-5B(JFH-1) replicon
Experimental: as §5, §1

Huh7.5 cells [9] = test: cell viability by MTT in Huh7.5 cells electroporated with SGR-luc-NS2-5B(JFH-1); type: cell-based; conditions: for CC50: MTT, Huh7.5, 48 h.p.e., single experiments in duplicate, read-out: Cell viability CC50, individual experiment
Experimental: as §5, §1

[10] = as above; type: cell-based; conditions: human, Huh7.5 cells electroporated with SGR-luc-NS2-5B(JFH-1); for CC50 at 48 h: MTT, Huh7.5, 48 h.p.e., Fig. 2D, read-out: Cell viability CC50, across experimental repeats
Experimental: as §5, §1

Huh7.5 cells [11] = test: cell viability by MTT in Huh7.5 cells electroporated with Jc1-NLuc; type: cell-based; conditions: Jc1-NLuc electroporated Huh7.5, 48 h.p.e.; read-out: Cell viability, MTT CC50, individual experiment
Experimental: as §5, §4

[12] = as above; type: cell-based; conditions: human, Jc1-NLuc electroporated Huh7.5, 48 h.p.e.
Experimental: as §5, §4

NS5A = test: western blot for NS5A in lysates of SGR-luc-NS2-5B(JFH-1) electroporated Huh7.5 cells; type: cell-based, Hepatitis C virus; conditions: 52 h.p.e.
Experimental: 2 × 10^6 cells were seeded in a 10 cm dish and incubated as indicated. Cells were washed in PBS and lysed in 100 μl PLB. Clarified lysates were analysed by 15% SDS-PAGE and western blot. Anti-GAPDH (Abcam) (1:20,000) or anti-NS5A ([Macdonald et al., 2003]) (1:5000) were followed by IRDye 680RD Donkey anti-Mouse or IRDye 800CW Donkey anti-Rabbit (LI-COR BioSciences) (1:10,000) respectively. Imaging was performed using an Odyssey Imager (LI-COR).

[13] = 10-point dose response, in vitro proteolysis, * mean ± SD of three experimental repeats, read-out: JFH1 NS2-3 EC50
[14] = Hepatitis C virus, Huh7.5, transient SGR-luc-NS2-5B(JFH-1), Huh7.5, 4-48 h.p.e., Fig. 2D, read-out: NS2-5B SGR EC50, mean ± SD across experimental repeats
[15] = transient SGR-luc-NS2-5B(JFH-1), Huh7.5, 48 h.p.e., single experiments in duplicate, read-out: NS2-5B SGR EC50, individual experiment

T1 sequence (Q99IB8 908-1210): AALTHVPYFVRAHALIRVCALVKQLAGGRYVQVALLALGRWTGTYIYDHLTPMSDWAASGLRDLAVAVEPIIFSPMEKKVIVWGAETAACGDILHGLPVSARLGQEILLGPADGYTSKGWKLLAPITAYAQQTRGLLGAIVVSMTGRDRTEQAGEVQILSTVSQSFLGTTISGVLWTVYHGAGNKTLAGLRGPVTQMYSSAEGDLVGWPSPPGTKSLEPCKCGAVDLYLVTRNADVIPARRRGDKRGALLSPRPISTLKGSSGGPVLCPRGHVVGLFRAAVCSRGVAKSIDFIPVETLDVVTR

CC1(C(=O)N2CCC3(C=Cc4ccccc43)CC2)CCCCC1 [160–1, 1-[(1-Methylcyclohexyl)carbonyl]-spiro[indene-1,4’-piperidine]]
EC50 [1, 13]: 43 ± 0.5 µM

O=C(C1CCCCC1)N1CCC2(C=Cc3ccccc32)CC1 [160–2, 1’-[(Cyclohexyl)carbonyl]-spiro[indene-1,4’-piperidine]]
melting point: 134 to 135 °C | EC50 [1, 13]: 68.4 ± 5.6 µM

CC1(C(=O)N2CCC3(CC2)c2ccccc2[C@@H](N)[C@@H]3O)CCCCC1 [Compound 160, (2R, 3R)-3-amino-1′-[(1-methylcyclohexyl)carbonyl]-2,3,dihydrospiro[indene-1,4′-piperidine]-2-ol]
luciferase activity time course relative to DMSO control ([2]; 160 at 25 μM, added 4 h.p.e., read every 4 h for 48 h): reduction in luciferase activity and a lag in detectable luciferase activity | selectivity index ([2]; CC50/EC50, transient SGR, no accurate CC50): > 5 | EC50 [2, 14]: 12 ± 6.4 µM | EC50 [2, 15]: 20.2 µM and 13.6 µM and 5.65 µM and 8.46 µM | EC50 ([3]; Hepatitis C virus, read-out: ff Luc EC50, SGR-feo-NS2-5B(JFH-1) stable cells, Huh7.5, 48 h, one representative experiment): 43.4 µM | EC50 ([3]; read-out: ff Luc EC50, SGR-feo-NS2-5B(JFH-1) stable cells, one representative experiment): 43.4 µM | luciferase activity relative to DMSO control, SGR-feo-NS3-5B(Con1) [4]: no effect; also recorded: without affecting luciferase activity | EC50 ([5]; Hepatitis C virus, Huh7.5, read-out: Jc1-NLuc EC50, mean, Huh7.5, treated 4 to 48 h.p.e., mean ± SD of three experiments): 17.3 ± 8.1 µM | EC50 ([5]; read-out: Jc1-NLuc EC50, individual experiment, Huh7.5, 48 h.p.e., three biological replicates): 24.4 µM and 18.9 µM and 8.54 µM | cytotoxicity at 25 μM (Huh7.5 cells [6]): no observed cytotoxicity | luciferase activity relative to DMSO control, SGR-feo-NS2-5B(Con1) [7]: significantly reduced; also recorded: reduces luciferase activity | CC50 at 48 h [8]: > 100 µM | concentration at which modest cytotoxic effects were observed (Huh7.5 cells [9]): ≥ 95 µM | CC50 (Huh7.5 cells [9]): > 100 µM | viability at 300 µM ([10]; 300 μM, read-out: cell viability at maximal attainable concentration): 40% | CC50 at 48 h [10]: > 100 µM | CC50 (Huh7.5 cells [11]): 81.2 µM and 155 µM | CC50 at 48 h ([12]; mean ± SD of three experiments, read-out: Cell viability, MTT CC50, mean): 110 ± 40 µM | CC50 at 48 h ([12]; read-out: Cell viability, MTT CC50, individual experiment): 93 µM | NS5A relative to DMSO control, western blot (NS5A; 160 at 25 μM): comparable reduction in NS5A | EC50 [1, 13]: 44.6 ± 6.2 µM | EC50 ([1]; Fig. 1B dose response, read-out: EC50, reduction of NS3-FLAG product in the in vitro NS2 autoprotease assay): 39 µM

CCC[C@H](NC(=O)[C@@H]1[C@H]2CCC[C@H]2CN1C(=O)[C@@H](NC(=O)[C@@H](NC(=O)c1cnccn1)C1CCCCC1)C(C)(C)C)C(=O)C(=O)NC1CC1 [Telaprevir, reference compound]
EC50 ([2]; Hepatitis C virus, Huh7.5, 48 h, transient SGR-luc-NS2-5B(JFH-1), Huh7.5, 48 h.p.e., single experiments in duplicate, read-out: NS2-5B SGR EC50, individual experiment): 0.206 µM | EC50 [2, 14]: 0.176 ± 0.023 µM | luciferase activity time course ([2]; Telaprevir at 100 nM, compared with 160 at 25 μM): comparable profile | EC50 [2, 15]: 0.146 µM | CC50 (Huh7.5 cells [9]): > 31.6 µM | CC50 at 48 h [10]: > 31.6 µM | NS5A relative to DMSO control, western blot (NS5A; Telaprevir at 100 nM): comparable reduction in NS5A
